According to article PMC11587505, “Identification and In Vitro and In Vivo Characterization of KAC-50.1 as a Potential α-Synuclein PET Radioligand” (ACS Chemical Neuroscience, 2024):

Target: T1, α-synuclein (recombinant fibrils) (Homo sapiens, UniProt P37840)
T1 construct: gene SNCA; recombinant human α-syn fibrils (pET-3a construct)
Assay: radioligand saturation binding (filtration) on recombinant fibrils

Kd: 35 nM
Structure (SMILES): COc1ccc(/C=C/c2cn(-c3ccccc3)nn2)cc1 [50.1, KAC-50.1]
